# Test results taken from patent publication US9107909B2, “Materials and methods to enhance hematopoietic stem cells engraftment procedures” (priority 2008, dated 2015).
# Entries after “also recorded” stand apart in the source; their conditions may differ. Where a name gives a salt, the structure may show the parent alone.
# Legend:
# mobilized PBMC = assay: Competitive transplantation of mobilized PBMC; format: in vivo, mouse; details: co-administered with G-CSF without stagger, 12 weeks post transplant, vs G-CSF alone
# Excerpt: Data are expressed as mean±SEM, n=5 mice per group, each assayed individually.
# CFU-GM = CFU-GM mobilization to peripheral blood in mice; format: in vivo, mouse; details: for CFU-GM / peripheral blood stem cell mobilization with G-CSF: co-administered with G-CSF, 4 days, vs G-CSF alone
# Description: Since PGE2 increases CXCR4 receptor expression and SDF-1/CXCR4 signalling is important for trafficking and retention of HSPC in the marrow. […] Data are expressed as mean±SEM CFU-GM mobilized per ml of blood for N=3 mice each assayed individually.
# Mice were given SC treatments of 150 microgram/kg indomethacin or 150 microgram/kg baicalein (lipoxygenase inhibitor) in gelatin every 48 hours with or without G-CSF for 4 days. CFU-GM mobilization was determined as previously described (Pelus et. al., Experimental Hematology 33 (2005) 295-307). […] Data are expressed as mean±SEM CFU-GM mobilized per ml of blood for N=3 mice each assayed.
# Referring now to FIG. 16, mice were given daily, bid SC injections with G-CSF (1 microgram per mouse) or G-CSF+indomethacin (50 microgram per mouse) for 4 days. CFU-GM mobilization was determined as described (Pelus et. al., Experimental Hematology 33 (2005) 295-307).
# Mice were given daily, bid SC injections with vehicle or Indomethacin (50 microgram per mouse) for four days. On day 5, mice were given either vehicle or AMD3100 (5 mg/kg). One hour later mice were sacrificed and CFU-GM mobilization was determined as previously described (Pelus et. al., Experimental Hematology 33 (2005) 295-307). […] Data are expressed as mean±SEM, n=5 mice per group, each assayed individually.
# Mice were mobilized with G-CSF and CFU-GM in PB was compared to mobilization regimens with G-CSF and the combination of various NSAIDS (Aspirin [COX-1 and COX-2]; Licofelone [COX-2 and 5-LOX]; SC-560 [COX-1]; Valeryl Salicylate [COX-1]; Valdecoxib [COX-2]; NS-398 [COX-2]). […] In order to test the efficacy of two commonly used COX inhibitors, mice were mobilized with G-CSF or the combination of G-CSF and aspirin or ibuprofen (PO., bid, 4 days). CFU-GM was determined as previously described. Referring now to FIG. 28, dose-response analysis of G-CSF+Aspirin and G-CSF+Ibuprofen mobilization of CFU-GM to peripheral blood are present in bar graph form for a control group of mice treated with only G-CSF; for mice treated with G-CSF plus 10, 20 or 40 milligram/kg of aspirin; and for mice treated with G-CSF plus 10, 20 or 40 milligram/kg of ibuprofen. Data are expressed as mean±SEM, n=4 mice per group, each assayed individually.
# SKL cells = assay: HSPC homing to bone marrow in vivo; design: species or system mouse; details: 10 microMolar AMD3100, cells incubated before homing assay; dihydrate
# Description: CD45.2 WBM was labeled with CFSE (Molecular Probes, Eugene, Oreg.) washed and treated on ice with either 1 microMolar dmPGE2 or vehicle. After treatment, cells were washed and 2×10^7 cells transplanted into lethally irradiated CD45.2 mice. After 16 hours, femurs and tibias were flushed, and a proportion of mouse marrow Lin^+ cells depleted using MACS microbeads (Miltenyi Biotech), stained with fluorochrome-conjugated-antibodies specific for biotin (lineage), c-kit (K), and Sca-1 (S) and the total number of CFSE^+ WBM (non lineage depleted), KL and SKL cells determined. For congenic homing studies, Lin^neg CD45.1 cells were treated on ice with 1 microMolar dmPGE2, vehicle, or PBS. After incubation, cells were washed and 2×10^6 cells transplanted into CD45.2 mice. After 16 hours, recipient bone marrow was harvested, lineage depleted, stained, and donor CD45.1 SKL cells determined. For competitive, head-to-head homing studies using sorted SKL cells, Lin^neg cells from CD45.2 and CD45.1 mice were FACS sorted, cells treated with either dmPGE2 or vehicle for 2 hours, washed and 3×10^4 CD45.1 (vehicle or dmPGE2 treated) plus 3×10^4 CD45.2 (dmPGE2 or vehicle treated) SKL cells transplanted into lethally irradiated F1 Hybrid mice. To evaluate the role of CXCR4 in homing studies, Lin^neg CD45.2 cells were treated on ice with vehicle or 1 microMolar dmPGE2 plus 10 microMolar AMD3100 (AnorMed Inc., Vancouver, BC, Canada) and 2×10^6 treated cells injected into lethally irradiated CD45.1 mice. Homed SKL cells were analyzed 16 hours post-transplant.
# Irrespective of its cause a marrow niche is required for HSPC to self-renew and differentiate and it is very likely that only HSPC homing to these niches can provide long-term repopulation. Referring now to FIG. 3A, in order to assess HSPC homing, CFSE labeled whole bone marrow (WBM) CD45.2 cells were pulsed with dmPGE2 or vehicle for 2 hours on ice, washed and injected IV in lethally irradiated CD45.2 hosts. After 16 hours, total CFSE^+ cells homing to bone marrow as well as the number of homed events within the KL and SKL cell populations were quantified.
# Highly purified SKL cells from both CD45.2 and CD45.1 mice were isolated by FACS sorting, treated with dmPGE2 or vehicle, and 3×10^4 vehicle-treated CD45.1 cells plus 3×10^4 dmPGE2-treated CD45.2 cells transplanted into CD45.1/CD45.2 mice. An additional cohort was concurrently transplanted with congenic strain and treatment groups were switched to test for any bias in strain homing. […] Although SKL cells are not a homogenous HSPC population, they are highly enriched for LTRC (Okada et al., 1992; Spangrude and Scollay, 1990).
# To evaluate the role of CXCR4 in homing, Lineage^neg CD45.2 cells were treated with vehicle or 1 microMolardmPGE2 plus 10 microMolar AMD3100, 2×10^6 treated cells injected into lethally-irradiated CD45.1 mice and homed SKL cells recovered 16 hours post-transplant and analyzed by FACS. Referring now to FIG. 11, homing efficiency of vehicle and dmPGE2 treated cells to bone marrow in the absence and presence of 10 microMolar AMD3100. Cells were incubated with AMD3100 for 30 minutes prior to the homing assay.
Compound,engraftment (competitive repopulating units) of mobilized PBMC (mobilized PBMC),"increase in the number of mobilized progenitor cells (CFU-GM) (CFU-GM; 150 μg/kg SC once daily for 4 days, alone) [fold]","HSPC (CFU-GM) mobilization in combination with AMD3100 (CFU-GM; 50 microgram per mouse bid SC 4 days, AMD3100 5 mg/kg day 5)",CFU-GM / peripheral blood stem cell mobilization with G-CSF (CFU-GM),CFU-GM / peripheral blood stem cell mobilization with G-CSF (CFU-GM; listed as Indomethacin),"baseline CFU-GM mobilization (CFU-GM; 150 μg/kg SC, alone)",effect of CXCR4 antagonist on SKL cell homing and on PGE2-enhanced homing (SKL cells)
"COc1ccc2c(c1)c(CC(=O)O)c(C)n2C(=O)c1ccc(Cl)cc1 [indomethacin, 2-{1-[(4-chlorophenyl)carbonyl]-5-methoxy-2-methyl-1H-indol-3-yl}acetic acid]",no improvement in engraftment,4,Mobilizes HSPC,highly synergistic increase; also recorded: larger fold increase,synergistically mobilize; also recorded: synergistic effect,,
O=c1cc(-c2ccccc2)oc2cc(O)c(O)c(O)c12 [baicalein],,,,no effect,,no effect,
"c1cc(CN2CCCNCCNCCCNCC2)ccc1CN1CCCNCCNCCCNCC1 [AMD3100, 1,1′-[1,4-Phenylenebis(methylene)]bis[1,4,8,11-tetraazacyclotetradecane]octohydrobromide dihydrate]",,,,,,,reduced SKL cell homing and abrogated the improved homing efficiency; also recorded: significantly reduced
